Results from patent publication US9266829B2, “Quinone compounds and their uses for the treatment of cancer” (Onco-NX Limited, priority 2012, dated 2016).
Read-outs that look alike come from different tables or passages of the source.

How the values were obtained:
[1] = tested on: MDA NQ01; assay: IC50 by MTT assay on NQ01 cells; type: cell-based, human; details: MTT assay
[2] = tested on: MDA468; assay: IC50 by MTT assay on MDA468 cells; type: cell-based, human
[3] = physchem; type: physicochemical; details: buffer, pH 7

Q: What does the source list for `O=c1[nH]cc(F)c(=O)[nH]1` [5-fluorouracil]?
A: IC50 ([1]; Homo sapiens): 12 µM; IC50 ([2]; Homo sapiens): 7.96 µM

Q: What does the source list for `N.N.[Cl][Pt][Cl]` [Cisplatin]?
A: IC50 [1]: 0.57 µM; IC50 [2]: 0.675 µM

Q: What does the source list for `[Cl][Co][Cl]` [Cobalt chloride]?
A: IC50 [1]: 54 µM; IC50 [2]: 35 µM

Q: Which half-life [3] does the source give for `COc1cccc(C(=O)OCC2=C(N3CC3)C(=O)C(C)=C(N3CC3)C2=O)c1OC` [Compound 4-05] here?
A: < 10 min

Q: For `COc1ccc(OC)c(C(=O)OCC2=C(N3CC3)C(=O)C(C)=C(N3CC3)C2=O)c1` [Compound 4-07], which half-life [3] is on record?
A: < 20 min

Q: With `COc1ccc(C(=O)OCC2=C(N3CC3)C(=O)C(C)=C(N3CC3)C2=O)cc1OC` [Compound 4-09] as the compound, how does the half-life [3] read?
A: < 30 min

Q: Which half-life [3] does the source give for `COc1ccc(C(=O)OCC2=C(N3CC3)C(=O)C(C)=C(N3CC3)C2=O)c(OC)c1` [Compound 4-10] here?
A: < 30 min

Q: With `COc1cccc(OC)c1C(=O)OCC1=C(N2CC2)C(=O)C(C)=C(N2CC2)C1=O` [Compound 4-11] as the compound, how does the half-life [3] read?
A: < 30 min

Q: Which half-life [3] does the source give for `COc1cc(C(=O)OCC2=C(N3CC3)C(=O)C(C)=C(N3CC3)C2=O)cc(OC)c1OC` [Compound 4-14] here?
A: < 30 min

Q: With `CC1=C(N2CC2)C(=O)C(COC(=O)c2ccc([N+](=O)[O-])cc2)=C(N2CC2)C1=O` [Compound 4-20] as the compound, how does the half-life [3] read?
A: 20 min

Q: For `CC1=C(N2CC2)C(=O)C(COC(=O)C(C)C)=C(N2CC2)C1=O` [Compound 4-36], which half-life [3] is on record?
A: < 30 min

Q: With `CCC(=O)OCC1=C(N2CC2)C(=O)C(C)=C(N2CC2)C1=O` [Compound 4-38] as the compound, how does the half-life [3] read?
A: 20 min
